According to ChEMBL document CHEMBL1157442, “Discovery of new binding elements in DPP-4 inhibition and their applications in novel DPP-4 inhibitor design” (Bioorg Med Chem Lett, 2008):

Assays:
[1] = target: Dipeptidyl peptidase 8 (Homo sapiens, UniProt Q6V1X1); experiment: Inhibition of DPP8
[2] = Clearance in rat plasma at 1 mg/kg, iv and 2 mg/kg, po; assay type: ADME, organism-based
[3] = Half life in rat plasma 1 mg/kg, iv and 2 mg/kg, po; assay type: ADME, organism-based
[4] = Cmax in rat 1 mg/kg, iv and 2 mg/kg, po; assay type: ADME, organism-based; conditions: in vivo
[5] = Oral bioavailability in rat at 2 mg/kg; assay type: ADME, organism-based; conditions: in vivo
[6] = target: Dipeptidyl peptidase 4 (Homo sapiens, UniProt P27487); experiment: Inhibition of DPP4
Dipeptidyl peptidase 4, sequence (P27487 whole entry): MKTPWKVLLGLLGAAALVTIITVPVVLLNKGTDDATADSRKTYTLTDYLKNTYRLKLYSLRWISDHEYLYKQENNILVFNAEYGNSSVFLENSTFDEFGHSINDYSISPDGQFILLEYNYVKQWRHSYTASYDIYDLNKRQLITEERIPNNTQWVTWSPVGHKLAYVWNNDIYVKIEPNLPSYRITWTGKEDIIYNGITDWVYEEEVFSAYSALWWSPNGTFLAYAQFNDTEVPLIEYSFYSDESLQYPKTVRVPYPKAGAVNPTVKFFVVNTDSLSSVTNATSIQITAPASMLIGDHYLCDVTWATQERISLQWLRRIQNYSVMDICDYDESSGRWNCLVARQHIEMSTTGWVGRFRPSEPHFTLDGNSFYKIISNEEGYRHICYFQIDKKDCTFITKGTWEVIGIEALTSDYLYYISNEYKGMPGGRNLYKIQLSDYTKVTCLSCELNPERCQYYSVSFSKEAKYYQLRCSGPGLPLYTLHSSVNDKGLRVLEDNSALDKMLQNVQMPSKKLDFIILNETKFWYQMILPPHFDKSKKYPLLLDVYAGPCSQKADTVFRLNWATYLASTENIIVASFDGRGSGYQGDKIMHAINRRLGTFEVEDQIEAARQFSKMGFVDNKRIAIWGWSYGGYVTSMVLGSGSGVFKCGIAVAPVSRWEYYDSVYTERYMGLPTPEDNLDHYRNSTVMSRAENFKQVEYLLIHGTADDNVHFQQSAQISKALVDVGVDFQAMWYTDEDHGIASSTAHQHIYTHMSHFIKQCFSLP

Dipeptidyl peptidase 8, sequence (Q6V1X1 whole entry): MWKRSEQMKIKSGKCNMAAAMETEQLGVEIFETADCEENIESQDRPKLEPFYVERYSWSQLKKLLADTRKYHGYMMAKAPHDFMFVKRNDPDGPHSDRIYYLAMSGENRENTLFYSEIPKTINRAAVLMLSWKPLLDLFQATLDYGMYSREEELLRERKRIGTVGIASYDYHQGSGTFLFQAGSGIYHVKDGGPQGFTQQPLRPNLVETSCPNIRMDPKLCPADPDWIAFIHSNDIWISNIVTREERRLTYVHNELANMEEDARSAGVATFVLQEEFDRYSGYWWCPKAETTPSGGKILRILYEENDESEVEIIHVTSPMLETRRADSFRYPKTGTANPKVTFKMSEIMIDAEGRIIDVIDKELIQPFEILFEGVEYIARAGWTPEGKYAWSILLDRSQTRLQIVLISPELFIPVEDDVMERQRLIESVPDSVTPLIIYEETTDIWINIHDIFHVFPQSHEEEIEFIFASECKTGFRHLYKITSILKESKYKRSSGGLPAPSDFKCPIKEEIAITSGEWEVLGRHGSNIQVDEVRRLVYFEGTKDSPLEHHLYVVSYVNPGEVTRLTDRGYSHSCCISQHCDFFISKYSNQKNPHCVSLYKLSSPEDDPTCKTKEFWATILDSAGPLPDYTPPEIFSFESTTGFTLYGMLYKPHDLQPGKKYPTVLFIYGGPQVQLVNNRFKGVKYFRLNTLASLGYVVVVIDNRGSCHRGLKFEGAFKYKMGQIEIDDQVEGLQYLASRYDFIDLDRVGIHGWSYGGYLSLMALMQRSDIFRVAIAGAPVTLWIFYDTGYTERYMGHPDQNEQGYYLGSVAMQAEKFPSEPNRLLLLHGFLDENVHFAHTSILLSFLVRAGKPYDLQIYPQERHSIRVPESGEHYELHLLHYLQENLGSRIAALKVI

## C[C@H](c1nc(-c2ccc(OC(F)(F)F)cc2)no1)[C@H](N)C(=O)N1CCCC1
[1]
  IC50: > 100 µM

## NC(=O)c1cccc(-c2ccc([C@H](N)Cc3cc(F)ccc3F)cc2)c1
[2]
  clearance: 13 mL/min/kg
[3]
  half-life: 3.8 h
[4]
  Cmax: 2100 nM
[1]
  IC50: > 100 µM
[5]
  bioavailability: 130%

## C[C@@H]1C(=O)NCCCN1C(=O)C[C@H](N)Cc1ccccc1F
[6]
  IC50: 0.04 µM

## N[C@H](Cc1cc(F)ccc1F)c1ccc(-c2ccncc2Cl)cc1
[6]
  IC50: 0.107 µM
[1]
  IC50: > 100 µM

## C[C@H](c1nc(-c2ccc(Cl)cc2Cl)no1)[C@H](N)C(=O)N1CC[C@H](F)C1
[6]
  IC50: 0.615 µM
[1]
  IC50: > 100 µM

## C[C@H](c1nc(-c2ccc(S(C)(=O)=O)cc2Cl)no1)[C@H](N)C(=O)N1CC[C@H](F)C1
[1]
  IC50: > 100 µM

## N[C@H](Cc1cc(F)ccc1F)c1ccc(Br)cc1
[1]
  IC50: > 100 µM

## Cc1noc(C(=O)C[C@H](N)Cc2cc(F)ccc2F)n1
[1]
  IC50: > 100 µM

## C[C@@H](c1ccc(-c2ccncc2Cl)cc1)[C@H](N)C(=O)N1CC[C@H](F)C1
[6]
  IC50: 0.071 µM
[1]
  IC50: > 100 µM

## C[C@@H](c1nc(-c2ccc(Cl)cc2Cl)no1)[C@H](N)Cc1cc(F)c(F)cc1F
[6]
  IC50: 0.6 µM
[1]
  IC50: > 100 µM

## C[C@@H](c1nc(-c2ccc(OC(F)(F)F)cc2)no1)[C@H](N)Cc1cc(F)ccc1F
[6]
  IC50: 4.4 µM
[1]
  IC50: > 100 µM

## C[C@@H](c1nc(-c2ccc(S(C)(=O)=O)cc2Cl)no1)[C@H](N)Cc1cc(F)c(F)cc1F
[6]
  IC50: 0.046 µM
[1]
  IC50: > 100 µM

## N[C@@H](CC(=O)N1CCC[C@H]1CO)C(=O)N1CC[C@H](F)C1
[6]
  IC50: 9.2 µM
